Assays:
phenylalanine assemblies = conditions: reference [4]; cited from earlier work
aah1Δapt1Δ strain = assay: Yeast growth assay of adenine salvage mutant with adenine feeding; format: cell-based, Saccharomyces cerevisiae
Method: (§1) Strains were grown over night at 30° C. in SD medium without adenine. For spotting assays, strains were diluted to 6.25*10^7 cells/mL and were then 5-fold serially diluted and spotted on SD media with the indicated concentrations of adenine or TA (Sigma-Aldrich). Plates were incubated at 30° C. for 2 days. […] For OD600 measurements, strains were diluted to OD600 0.01, 200 μL of cells were platted on 96 wells plates and incubated at 30° C. for 25 hours with continuous shaking. OD600 was measured using Tecan™ SPARK 10M plate reader.
For the percentage of growth analysis (FIG. 10B and FIG. 13A), OD600 was measured when cells reached log phase. The percentage of growth represents the growth with TA compared to the growth without TA.

cys4Δ strain = assay: Yeast growth assay of cys4Δ mutant with homocysteine; format: cell-based, Saccharomyces cerevisiae; conditions: 13 mg/L cysteine, 80 mg/L homocysteine, 0.3 mM TA
Method: FIG. 27E: WT and cys4Δ strains diluted to OD600 0.01 were grown in SD media containing 13 mg/L cysteine and 80 mg/L homocysteine in the under the indicated conditions. 0.3 mM TA was added to the samples at different OD600. The percentage of growth represents the growth the indicated condition compared to the growth of WT without TA. *P<0.05 (Student's t-test).
Homocystinuria results from cystathionine beta synthase (CBS) deficiency, leading to excess of Hcy. A knockout mutation in CYS4, the highly-conserved functional yeast ortholog of the human cystathionine beta synthase (CBS) known to be essential for Hcy salvage, was therefore generated. Due to the contribution of this enzyme to cysteine biosynthesis, it was first shown that its absence confers cysteine dependence (FIG. 27A). […] To examine whether the observed toxicity was associated with the in vivo formation of amyloid-like assemblies, the cells were stained with the amyloid-specific fluorescent dye ProteoStat which allows to detect intracellular amyloid fibrils. […] Next, to further establish the amyloid-like nature of the aggregates, the fibrillation-modifying polyphenolic compound tannic acid (TA) was used (FIG. 27E).

wild-type strain = assay: Yeast growth assay of wild-type strain; format: cell-based, Saccharomyces cerevisiae; conditions: 13 mg/L cysteine, 80 mg/L homocysteine, 0.3 mM TA
Method: as §1

aah1Δapt1Δ cells [1] = assay: Confocal microscopy with ProteoStat staining of salvage mutant; format: cell-based, Saccharomyces cerevisiae; conditions: adenine in media, TA 0.5 mM
Method: An amount of 1 mL of logarithmic cells were washed with PBS buffer, sonicated using 15 s pulses at 20% power and resuspended in 50 μL of ProtesoStat dye diluted 1:250 in ProteoStat assay buffer. Cells were incubated for 15 min at room temperature protected from light. 10 μL of each sample was deposited on poly-lysine coated glass slides (Sigma-Aldrich). Cells were imaged using Leica TCS SP8 laser confocal microscope with 63×1.4 NA or 100*1.4 NA oil objectives. To visualize the nuclei, Hoechst (33342; ImmunoChimestry) was used. An argon laser with 488 excitation line was used for ProteoStat (emission wavelength, 500 to 600 nm), and a 405 UV laser was used to excite Hoechst fluorescence (emission wavelength, 415 to 450 nm).

aah1Δapt1Δ cells [2] = assay: LC-MS detection of TA and adenine inside cells; format: cell-based, Saccharomyces cerevisiae; conditions: cells grown in SD medium containing adenine and TA
Method: 100 ml of cells at the logarithmic phase were centrifuged and washed three times with PBS. 1 ml of the growth medium and of each wash were collected for LC-MS analysis. After the third wash, the pellet was resuspended in PBS together with acid-washed glass beads. Tubes were vortexed for 45 minutes in 4° C. using disruptor-genie. Cell debris and soluble material were separated by centrifugation. Both fractions as well as the medium and washes were analyzed by MS. The pellet was resuspended in 200 μl DMSO, heated for 5 minutes at 85° C. and sonicated for 5 minutes at 40° C. The lysis mixture was centrifuged at 6000 rpm for 10 minutes. 150 μl of the lysate were transferred to a Waters 96 well ACQUITY collection plate for LC-MS analysis. 20 μl of each sample were injected to Waters Autopurification system analytical module equipped with SQD2 MS detector at the following conditions: a. LC: Waters XSelect Peptide CSH C18 column (5 μm, 4.6 mm×100 mm) using a 10 minute gradient from 95:5 Water:acetonitrile (both with 0.1% formic acid) to acetonitrile (0.1% formic acid); b. MS: acquisition parameters were optimized in order to select the proper ion for selected ion monitoring (SIR) experiments.

[3] = test system: adenine aggregation in aah1Δapt1Δ cells; assay: Flow cytometry with ProteoStat staining of salvage mutant; format: cell-based, Saccharomyces cerevisiae; conditions: adenine in media, TA 0.5 mM
Method: An amount of 1 mL of logarithmic cells were washed with PBS buffer and sonicated using 15 s pulses at 20% power. For each sample, 2*10^6 cells were resuspended with ProteoStat dye (Enzo Life Sciences) diluted 1:3000 in ProteoStat assay buffer. Cells were incubated for 15 min at room temperature protected from light. Flow cytometry was preformed using Stratedigm S1000EXi and the CellCapTure software (Stratedigm, San Jose, Calif.). Live cells were gated (P1) by forward scatter and side scatter. Fluorescence channels for FITC (530/30) and PE-Cy5 (676/29) were used utilizing a 488 nm laser source. A total of 50,000 events were acquired for each sample. Analyses were performed using FlowJo software (TreeStar, version 10).

adenine fibrils = conditions: previously demonstrated, reference [4]; cited from earlier work
healthy LCLs = assay: LCLs survival assay (XTT), healthy LCLs; format: cell-based, human; conditions: adenosine 300 μg/ml
Method: (§2) 24 hours after seeding in 96 round bottom plates in full medium cells were washed once with medium without serum and placed in medium without serum. Following 72 hours of incubation with or without Adenosine (200 ug/ml) and with or without purpurin (2 uM), XTT based cell viability assay was performed. Absorbance was measured with Tecan™ SPARK 10M plate reader.
(§3) In order to assess the toxic effect of adenosine aggregates, XTT based cell viability assays were performed on healthy and ADA deficient LCLs. Cells went through similar procedure as described above except adenosine was at 300 μg/ml. Survival percentage was calculated as absorbance with adenosine divided by absorbance without adenosine. […] Moreover. 4 out of 5 ADA deficient cell lines display less than 20% survival (FIG. 15B cell lines 7,8,9,11,12).

ADA deficient LCLs = assay: LCLs survival assay (XTT), ADA deficient LCLs; format: cell-based, human; conditions: adenosine 300 μg/ml, XTT
Method: as §2, §3

[4] = test system: adenosine aggregates in ADA deficient LCLs; assay: Aggregation assay (Proteostat, FACS) on ADA deficient LCLs; format: cell-based, human; conditions: adenosine 200 μg/ml, 72 hours
Method: 24 hours after seeding in full medium cells were washed with medium without serum and placed in medium without serum. Following 72 hours of incubation with or without Adenosine (A9251 SIGMA) (200 ug/ml), cells were washed with PBS and stained for adenosine aggregates with Proteostat dye (ENZ-51023-KP002). Proteostat concentration was 1:3000 of diluted stock. Following 15 minutes' incubation, cells were washed with PBS and mean fluorescence was measured with FACS.
Cells were treated with adenosine alone or with adenosine with compounds. Compound activity was tested in 19 concentrations in range from 50 uM to 0.003 uM.
Readouts: Proteostat Fluorescence intensity was measured with FACS at 2 excitation wavelengths: 488 nm and 550 nm. Emission wavelength was 600 nm.
24 hours after seeding in 96 round bottom plates in full medium cells were washed once with medium without serum and placed in medium without serum. Following 72 hours of incubation with or without Adenosine (200 ug/ml) and with or without purpurin (2 uM), cells were washed once with PBS and stained for adenosine aggregates with Proteostat dye (Enzo Life Sciences). Proteostat concentration was 1:4000 of diluted stock. Following 15 minutes incubation, cells were washed with PBS and mean flow cytometry was preformed using Stratedigm S1000EXi and the CellCapTure software (Stratedigm, San Jose, Calif.). Analyses were performed using FlowJo software (TreeStar, version 10).
For quantification of intracellular adenosine aggregates by FACS analyses, 100,000 cells were seeded in 96 well plates in full medium. After 24 hours, cells were centrifuged, washed once and added with serum free medium with or without Adenosine (200 μg/ml). After incubation of 72 hours cells were washed with PBS and stained for adenosine aggregates with Proteostat dye. Following 15 minutes incubation, cells were washed with PBS and mean fluorescence was measured with FACS. Mean cell fluorescence of every cell line was normalized to its signal without adenosine and data is presented as percentage of aggregates.

## O=C(OC[C@H]1O[C@@H](OC(=O)c2cc(O)c(O)c(OC(=O)c3cc(O)c(O)c(O)c3)c2)[C@H](OC(=O)c2cc(O)c(O)c(OC(=O)c3cc(O)c(O)c(O)c3)c2)[C@@H](OC(=O)c2cc(O)c(O)c(OC(=O)c3cc(O)c(O)c(O)c3)c2)[C@@H]1OC(=O)c1cc(O)c(O)c(OC(=O)c2cc(O)c(O)c(O)c2)c1)c1cc(O)c(O)c(OC(=O)c2cc(O)c(O)c(O)c2)c1 [TA, Tannic acid]
Phenylalanine assemblies
  phenylalanine aggregation and cytotoxicity of the assemblies in vitro: counteract
aah1Δapt1Δ strain; 0.5 mM TA added at earlier time points of yeast growth
  formation of adenine amyloid-like assemblies / growth, inhibitor added at earlier time points: hinder the formation of adenine amyloid-like assemblies
aah1Δapt1Δ strain; 0.5 mM TA added at later stages of yeast growth
  growth, inhibitor added at later stages: no effect on their growth
aah1Δapt1Δ strain; in the presence of adenine, TA added to the yeast media at various concentrations
  cell growth of the salvage mutant: clearly improved cell growth of the salvage mutant in a dose-dependent manner
cys4Δ strain
  growth inhibition of the salvage mutant strain in the presence of Hcy: significantly ameliorated the growth inhibition
wild-type strain
  growth of wild-type strain: no effect was observed
aah1Δapt1Δ cells [1]
  ProteoStat stained dots (confocal microscopy): absence of the stained dots
aah1Δapt1Δ cells [2]
  presence inside the cell (LC-MS): detected inside the cell
[3]
  metabolite aggregation (ProteoStat, flow cytometry): decrease in metabolite aggregation
Adenine fibrils
  adenine self-assembly in vitro: inhibition of adenine self-assembly in vitro

## Nc1ncnc2c1ncn2[C@@H]1O[C@H](CO)[C@@H](O)[C@H]1O [adenosine, Adenosine]
Healthy LCLs
  survival of healthy LCLs in the presence of adenosine: above 70%
ADA deficient LCLs
  survival of ADA deficient LCLs in the presence of adenosine: below 40%
  survival, 4 out of 5 ADA deficient cell lines: less than 20%
[4]
  Proteostat staining of ADA deficient LCLs compared to healthy LCLs: 2-3 fold
